Source: patent US12077503B2, “Substituted cyclic amides and their use as herbicides” (FMC CORPORATION, priority 2015, dated 2024)

What was measured:
Format in all cases: in vivo
[1] = system: sedge, umbrella (small-flower umbrella sedge, Cyperus difformis); experiment: Test B flooded paddy test; settings: Flood, 250 g ai/ha
Description: (§1) Plant species in the flooded paddy test selected from rice (Oryra sativa), sedge, umbrella (small-flower umbrella sedge, Cyperus difformis), ducksalad (Heteranthera limosa), and barnyardgrass (Echinochloa crus-galli) were grown to the 2-leaf stage for testing. At time of treatment, test pots were flooded to 3 cm above the soil surface, treated by application of test compounds directly to the paddy water, and then maintained at that water depth for the duration of the test. Treated plants and controls were maintained in a greenhouse for 13 to 15 d, after which time all species were compared to controls and visually evaluated. Plant response ratings, summarized in Table B, are based on a scale of 0 to 100 where 0 is no effect and 100 is complete control. A dash (-) response means no test result.

[2] = system: ducksalad (Heteranthera limosa); experiment: Test B flooded paddy test; settings: Flood, 250 g ai/ha, 0 to 100 scale where 0 is no effect and 100 is complete control
Description: as §1

[3] = system: barnyardgrass (Echinochloa crus-galli); experiment: Test B flooded paddy test; settings: Flood, 250 g ai/ha, 0 to 100 scale where 0 is no effect and 100 is complete control
Description: as §1

rice (Oryra sativa) = experiment: Test B flooded paddy test; settings: Flood, 250 g ai/ha, 0 to 100 scale where 0 is no effect and 100 is complete control
Description: as §1

[4] = system: giant foxtail (Setaria faberii); experiment: Test A postemergence
Description: (§2) Seeds of plant species selected from barnyardgrass (Echinochloa crus-galli), Kochia (Kochia scoparia), ragweed (common ragweed, Ambrosia elatior), ryegrass, Italian (Italian ryegrass, Lolium multiflorum), crabgrass, large (Digitaria sanguinalis), giant foxtail (Setaria faberii), green foxtail (Setaria viridis), morningglory (Ipomoea spp.), pigweed (Amaranthus retroflexus), velvetleaf (Abutilon theophrasti), wheat (Triticum aestivum), and corn (Zea mays) were planted into a blend of loam soil and sand and treated preemergence with a directed soil spray using test chemicals formulated in anon-phytotoxic solvent mixture which included a surfactant.
(§3) At the same time, plants selected from these crop and weed species and also blackgrass (Alopecurus myosuroides), and Galium (catchweed bedstraw, Galium aparine) were planted in pots containing the same blend of loam soil and sand and treated with postemergence applications of test chemicals formulated in the same manner. Plants ranged in height from 2 to 10 cm and were in the one- to two-leaf stage for the postemergence treatment. Treated plants and untreated controls were maintained in a greenhouse for approximately 10 d, after which time all treated plants were compared to untreated controls and visually evaluated for injury. Plant response ratings, summarized in Table A, are based on a 0 to 100 scale where 0 is no effect and 100 is complete control. A dash (-) response means no test result.

[5] = system: pigweed (Amaranthus retroflexus); experiment: Test A postemergence
Description: as §2, §3

Kochia (Kochia scoparia) [6] = experiment: Test A postemergence
Description: as §2, §3

[7] = system: ryegrass, Italian (Italian ryegrass, Lolium multiflorum); experiment: Test A postemergence
Description: as §2, §3

[8] = system: Galium (catchweed bedstraw, Galium aparine); experiment: Test A postemergence
Description: as §2, §3

[9] = system: wheat (Triticum aestivum); experiment: Test A postemergence
Description: as §2, §3

[10] = system: ragweed (common ragweed, Ambrosia elatior); experiment: Test A postemergence
Description: as §2, §3

[11] = system: barnyardgrass (Echinochloa crus-galli); experiment: Test A postemergence
Description: as §2, §3

corn (Zea mays) = experiment: Test A postemergence
Description: as §2, §3

[12] = system: blackgrass (Alopecurus myosuroides); experiment: Test A postemergence
Description: as §2, §3

[13] = system: giant foxtail (Setaria faberii); experiment: Test A preemergence; settings: for Plant response rating, Foxtail, Giant: 125 g ai/ha, 0 to 100 scale (0 no effect, 100 complete control)
Description: as §2, §3

[14] = system: pigweed (Amaranthus retroflexus); experiment: Test A preemergence
Description: as §2, §3

Kochia (Kochia scoparia) [15] = experiment: Test A preemergence
Description: as §2, §3

[16] = system: ryegrass, Italian (Italian ryegrass, Lolium multiflorum); experiment: Test A preemergence; settings: for Plant response rating, Ryegrass, Italian: 125 g ai/ha, 0 to 100 scale (0 no effect, 100 complete control)
Description: as §2, §3

[17] = system: ragweed (common ragweed, Ambrosia elatior); experiment: Test A preemergence; settings: for Plant response rating, Ragweed: 125 g ai/ha, 0 to 100 scale (0 no effect, 100 complete control)
Description: as §2, §3

[18] = system: barnyardgrass (Echinochloa crus-galli); experiment: Test A preemergence
Description: as §2, §3

[19] = 500 g ai/ha, postemergence, 0 to 100 scale, 0 no effect, 100 complete control
[20] = Postemergence, 125 g ai/ha, visual injury, 0 to 100 scale (0 no effect, 100 complete control), approx. 10 d
[21] = Preemergence, 500 g ai/ha, 0 is no effect, 100 is complete control
[22] = 125 g ai/ha, preemergence, 0 to 100 scale (0 no effect, 100 complete control)
[23] = Postemergence, 500 g ai/ha, visual injury, 0 to 100 scale (0 no effect, 100 complete control), approx. 10 d
[24] = 125 g ai/ha, Postemergence, visual rating about 10 d after treatment
[25] = 500 g ai/ha, preemergence, 0 to 100 scale where 0 is no effect and 100 is complete control

Cc1ccc(C2CNC(=O)C2C(=O)Nc2ccc(F)c(F)c2F)cc1F (racemic) [Compound 371]
Plant response rating, Sedge, Umbrella ([1]; 0 to 100 scale where 0 is no effect and 100 is complete control, 13 to 15 d): 0
Plant response rating, Ducksalad ([2]; 13 to 15 d): 100
Plant response rating, Barnyardgrass ([3]; 13 to 15 d): 60
Plant response rating, Rice (rice (Oryra sativa); 13 to 15 d): 20
Plant response rating, Foxtail, Giant [4, 19]: 90
Plant response rating, Foxtail, Giant [4, 20]: 50
Plant response rating, Pigweed [5, 19]: 20
Plant response rating, Pigweed [5, 20]: 0
Plant response rating, Kochia (Kochia (Kochia scoparia) [6]; [19]): 40
Plant response rating, Kochia (Kochia (Kochia scoparia) [6]; [20]): 20
Plant response rating, Ryegrass, Italian [7, 19]: 30
Plant response rating, Ryegrass, Italian [7, 20]: 20
Plant response rating, Galium [8, 19]: 30
Plant response rating, Galium [8, 20]: 30
Plant response rating, Wheat [9, 19]: 40
Plant response rating, Wheat [9, 20]: 0
Plant response rating, Ragweed [10, 19]: 30
Plant response rating, Ragweed [10, 20]: 0
Plant response rating, Barnyardgrass [11, 19]: 90
Plant response rating, Barnyardgrass [11, 20]: 80
Plant response rating, Corn (corn (Zea mays); [19]): 60
Plant response rating, Corn (corn (Zea mays); [20]): 20
Plant response rating, Blackgrass [12, 19]: 60
Plant response rating, Blackgrass [12, 20]: 30
Plant response rating, Foxtail, Giant ([13]; preemergence): 90
Foxtail, Giant plant response rating (0 to 100 scale) [13, 21]: 90
Plant response rating, Pigweed [14, 22]: 0
Pigweed plant response rating (0 to 100 scale) [14, 21]: 20
Plant response rating, Kochia (Kochia (Kochia scoparia) [15]; [22]): 20
Kochia plant response rating (0 to 100 scale) (Kochia (Kochia scoparia) [15]; [21]): 60
Plant response rating, Ryegrass, Italian ([16]; preemergence): 0
Ryegrass, Italian plant response rating (0 to 100 scale) [16, 21]: 20
Plant response rating, Ragweed ([17]; preemergence): 30
Ragweed plant response rating (0 to 100 scale) [17, 21]: 40
Plant response rating, Barnyardgrass [18, 22]: 90
Barnyardgrass plant response rating (0 to 100 scale) [18, 21]: 90

Cc1cc([C@H]2CN(C)C(=O)[C@@H]2C(=O)Nc2ccccc2[S+](C)[O-])ccc1F (stereo partly drawn) [Compound 1313]
pest or weed control at 250 g/ha ([1]; Cyperus difformis, 360 h, visually evaluated after 13 to 15 d, read-out: Plant response rating, Sedge, Umbrella (0 to 100 scale where 0 is no effect and 100 is complete control)): 0%
Ducksalad plant response rating [2]: 70
Barnyardgrass plant response rating [3]: 25
pest or weed control at 250 g/ha (rice (Oryra sativa); Oryza sativa, read-out: Rice plant response rating): 0%
pest or weed control at 125 g/ha ([4]; Setaria faberi, post-emergence, 240 h, 125 g ai/ha, Postemergence, visual rating about 10 d after treatment, read-out: Foxtail, Giant plant response rating (0 to 100 scale)): 90%
pest or weed control at 500 g/ha ([4]; Setaria faberi, post-emergence, 240 h, Postemergence, 500 g ai/ha, visual injury, 0 to 100 scale (0 no effect, 100 complete control), approx. 10 d, read-out: Plant response rating, Foxtail, Giant): 90%
pest or weed control at 125 g/ha ([5]; Amaranthus retroflexus, post-emergence, 240 h, 125 g ai/ha, Postemergence, visual rating about 10 d after treatment, read-out: Pigweed plant response rating (0 to 100 scale)): 0%
Plant response rating, Pigweed [5, 23]: 0
Kochia plant response rating (0 to 100 scale) (Kochia (Kochia scoparia) [6]; [24]): 20
pest or weed control at 500 g/ha (Kochia (Kochia scoparia) [6]; Bassia scoparia, post-emergence, 240 h, Postemergence, 500 g ai/ha, visual injury, 0 to 100 scale (0 no effect, 100 complete control), approx. 10 d, read-out: Plant response rating, Kochia): 50%
pest or weed control at 125 g/ha ([7]; Lolium multiflorum, post-emergence, 240 h, 125 g ai/ha, Postemergence, visual rating about 10 d after treatment, read-out: Ryegrass, Italian plant response rating (0 to 100 scale)): 0%
pest or weed control at 500 g/ha ([7]; Lolium multiflorum, post-emergence, 240 h, Postemergence, 500 g ai/ha, visual injury, 0 to 100 scale (0 no effect, 100 complete control), approx. 10 d, read-out: Plant response rating, Ryegrass, Italian): 0%
Galium plant response rating (0 to 100 scale) [8, 24]: 0
pest or weed control at 500 g/ha ([8]; Galium, post-emergence, 240 h, Postemergence, 500 g ai/ha, visual injury, 0 to 100 scale (0 no effect, 100 complete control), approx. 10 d, read-out: Plant response rating, Galium): 40%
Wheat plant response rating (0 to 100 scale) [9, 24]: 0
Plant response rating, Wheat [9, 23]: 0
pest or weed control at 125 g/ha ([10]; Ambrosia artemisiifolia, post-emergence, 240 h, 125 g ai/ha, Postemergence, visual rating about 10 d after treatment, read-out: Ragweed plant response rating (0 to 100 scale)): 0%
Plant response rating, Ragweed [10, 23]: 0
Corn plant response rating (0 to 100 scale) (corn (Zea mays); [24]): 0
Plant response rating, Corn (corn (Zea mays); [23]): 0
pest or weed control at 125 g/ha ([12]; Alopecurus myosuroides, post-emergence, 240 h, 125 g ai/ha, Postemergence, visual rating about 10 d after treatment, read-out: Blackgrass plant response rating (0 to 100 scale)): 0%
Plant response rating, Blackgrass [12, 23]: 0
Plant response rating, Foxtail, Giant ([13]; Preemergence): 20
pest or weed control at 500 g/ha ([13]; Setaria faberi, pre-emergence, 240 h, 500 g ai/ha, preemergence, 0 to 100 scale where 0 is no effect and 100 is complete control, read-out: Foxtail, Giant plant response rating): 80%
Pigweed plant response rating [14, 25]: 0
pest or weed control at 125 g/ha ([14]; Amaranthus retroflexus, pre-emergence, 240 h, Preemergence, 125 g ai/ha, 0 to 100 scale (0 no effect, 100 complete control), read-out: Plant response rating, Pigweed): 0%
pest or weed control at 500 g/ha (Kochia (Kochia scoparia) [15]; Bassia scoparia, pre-emergence, 240 h, 500 g ai/ha, preemergence, 0 to 100 scale where 0 is no effect and 100 is complete control, read-out: Kochia plant response rating): 100%
pest or weed control at 125 g/ha (Kochia (Kochia scoparia) [15]; Bassia scoparia, pre-emergence, 240 h, Preemergence, 125 g ai/ha, 0 to 100 scale (0 no effect, 100 complete control), read-out: Plant response rating, Kochia): 90%
Plant response rating, Ryegrass, Italian ([16]; Preemergence): 0
Ragweed plant response rating [17, 25]: 0
Plant response rating, Ragweed ([17]; Preemergence): 0
pest or weed control at 500 g/ha ([18]; Echinochloa crus-galli, pre-emergence, 240 h, 500 g ai/ha, preemergence, 0 to 100 scale where 0 is no effect and 100 is complete control, read-out: Barnyardgrass plant response rating): 100%
pest or weed control at 125 g/ha ([18]; Echinochloa crus-galli, pre-emergence, 240 h, Preemergence, 125 g ai/ha, 0 to 100 scale (0 no effect, 100 complete control), read-out: Plant response rating, Barnyardgrass): 90%
